Laboratory results: publication PMC8231556, “Inhibiting Endothelial Cell Function in Normal and Tumor Angiogenesis Using BMP Type I Receptor Macrocyclic Kinase Inhibitors” (Cancers, 2021)

Columns and labels:
ACVR2A = ACVR2A (Homo sapiens, UniProt P27037); assay: radiometric protein kinase assay, affinity (Kd); assay type: binding
Description: The binding interaction profile of the compounds for ALK1–6, ACVR2A, ACVR2B, and TGFβR2 was determined by using radiometric protein kinase assay. For each compound, ten different concentrations (from 3 × 10^−6 M to 9 × 10^−11 M) were used in the protein kinase reaction. The inhibitor binding constants (Kd values) were calculated based on the 10 corresponding residual activities for each compound using Prism 5.04 (Graphpad, San Diego, CA, USA) according to the following formula:Kd = ([K][I]/[C]) where [K] = molar concentration of non-inhibitor bound kinase at equilibrium, [I] = molar concentration of the free inhibitor at equilibrium, [C] = molar concentration of kinase-inhibitor complex at equilibrium.

HUVECs [1] = assay: Cord formation assay, HUVEC-eGFP co-cultured with human dermal fibroblasts; assay type: cell-based; conditions: for effect on VEGF-induced EC cord formation: VEGF 15 ng/mL, 6 days, 0.5 µM (Sunitinib 1 μM); for effect on VEGF-induced cord length, different concentrations: dose range
Description: The cord formation assay was performed according to the IncuCyte Angiogenesis PrimeKit Assay protocol (Cell Player Angiogenesis PrimeKit, Essen BioScience). In brief, GFP labeled HUVEC cells and human dermal fibroblasts were mixed in a 1:20 ratio and seeded per well in a 96-well plate (3150 cells in total). Thereafter, the cells were exposed to VEGF alone or in combination with the compounds (at indicated concentrations) in a complete assay medium. Pictures were captured every 6 h for up to 9 days To monitor the cord formation. The medium was refreshed every 2 or 3 days. Cords formation was visualized by the GFP fluorescence, and cord length was quantified with the instrument’s software. All the experiments were repeated at least three times, and representative experiments are shown.

HUVECs [2] = assay: Chemotactic invasion assay; assay type: cell-based, human; conditions: 0.5 µM, towards full medium with 20% FBS
Description: The invasion potential of ECs was investigated using the chemotactic invasion assay, according to the IncuCyte instruction manual. Briefly, the top layer of an IncuCyte ClearView 96-well chemotaxis plate (4582, Essen Bioscience) was coated with 1% gelatin for 30 min. One thousand five hundred HUVEC cells/well were seeded on the gelatin-coated top plate and covered with 60 µL M199 medium with 1% FBS containing 0.5 µM of the indicated compounds or vehicle control (DMSO). Then 200 µL/well of M199 supplemented with 20% FBS, 100 IU/mL penicillin/streptomycin, 0.01 IU/mL Heparine, and BPE with 0.5 µM of the indicated compounds was added to the bottom plate. The plate was placed in the IncuCyte, and whole well images of both top and bottom membranes were captured every 4 h for one day using the IncuCyte Chemotaxis imaging protocol. Finally, the top and bottom cell areas were quantified with the instrument’s software using automated algorithms. The ECs invasive behavior was presented as total bottom cell area normalized to the initial top cell area. All the experiments were repeated at least three times, and representative results are shown.

[3] = system: Tg (fli:EGFP) zebrafish embryos; assay: Zebrafish subintestinal vessel (SIV) formation; assay type: in vivo; conditions: 0.5 µM, 3 days
Description: The Tg (fli:EGFP) zebrafish embryos were collected, and embryos with the same development stage (around 2.5 hpf) were selected. Groups containing at least 25 embryos were treated with the indicated compounds at 0.5 µM for 3 days. The egg water was refreshed every day, and the abnormal embryos were removed. After 3 days of treatment, the zebrafish embryos were fixed in 4% PFA for 2 h at room temperature and stored at 4 °C in PBS. The area containing SIV in each zebrafish embryo was scanned with an Andor Dragonfly 500 spinning disk confocal by using a 488 nm laser. At least ten zebrafish embryos in each group were randomly selected and analyzed. The SIV vasculature of the zebrafish was quantified with ImageJ. The leading buds were counted as previously described. The experiments were repeated twice with similar results.

VEGF-induced pERK = assay: Western blot of VEGF-induced ERK MAP kinase phosphorylation in HUVECs; assay type: cell-based, human; conditions: VEGF 40 ng/mL
Description: EA.hy926 cells or HUVECs were seeded in 6-well plates and starved in a serum-free medium for 4 h after reaching 80% confluence. The compounds were added 30 min prior to stimulation with the corresponding ligands. EA.hy926 cells were incubated with BMP9 (1 ng/mL), BMP6 (50 ng/mL), TGF-β2 (1 ng/mL), or vehicle control for 1 h. For HUVECs, after 4 h starvation, the cells were pre-treated with or without the indicated compounds for 30 min and subsequently stimulated with VEGF (40 ng/mL) for 10 min. The cells were harvested and lysed in radioimmunoprecipitation assay (RIPA) lysis buffer containing 1× complete protease inhibitor cocktail (11836153001, Roche, Basel, Switzerland). The protein concentration was determined using the DC protein assay kit (5000111, Bio-Rad). After adding loading buffer, the samples were boiled and proteins separated by sodium dodecyl sulfate polyacrylamide gel electrophoresis (SDS-PAGE). Proteins in the gel were transferred to polyvinylidene difluoride (PVDF) membranes (IPVH00010, Merck Millipore, Burlington, MA, USA) and immunoblotted with 1000 times diluted primary antibodies: phospho-SMAD1/5 (9516 S, Cell Signaling Technology, Leiden, The Netherlands), phospho-SMAD2 (pSMAD2, home-made), SMAD1 (6944 S, Cell Signaling Technology), SMAD2 (3103 S, Cell Signaling Technology), phospho-extracellular signal-regulated kinase/mitogen-activated protein kinase (pERK/MAPK, 4370, Cell Signaling Technology), mitogen-activated protein kinase/ERK1/2 (ERK1/2/MAPK, 9102 S, Cell Signaling Techonol), VEGFR (2479, Cell Signaling), pVEGFR (2478, Cell Signaling Technology), α/β-Tubulin (2148, Cell Signaling Technology), glyceraldehyde 3-phosphate dehydrogenase (GAPDH, MAB374, Merck Millipore). Clarity™ enhanced chemiluminescence (ECL) reagent (1705060, Bio-Rad) was used to visualize secondary antibodies conjugated to horseradish peroxidase (HRP). GAPDH or Tubulin was used as protein loading controls. […] The protein bands were quantified using ImageJ (National Institutes of Health, Bethesda, MD, USA).

[4] = system: MDA-MB-231 breast cancer cell-induced angiogenesis; assay: Tumor angiogenesis in zebrafish (MDA-MB-231 xenograft); assay type: in vivo; conditions: 0.5 µM, 3 days, MDA-MB-231 in perivitelline space
Description: Two days post fertilization (dpf), four hundred mCherry-labeled human breast cancer MDA-MB-231 cells were injected into the perivitelline space of Tg (fli:EGFP) zebrafish embryos as previously described. The properly injected zebrafishes were randomly divided into five groups, and each group contained at least 30 embryos. […] The egg water was refreshed daily, and the abnormal embryos were removed. After 3 days, the embryos were fixed in 4% PFA for 2 h at room temperature and stored at 4 °C in PBS. The tumor cell-induced angiogenesis in the perivitelline space was imaged with an Andor Dragonfly 500 spinning disk confocal using 488 nm and 561 nm lasers. At least ten embryos per group were randomly selected and scanned. The experiments were repeated twice with similar results. Tumor angiogenesis was quantified using ImageJ, and the relative vasculature density was calculated according to the following formula: Relative vasculature density (%) = 100% × (Vessel intensity within the perivitelline space)/(tumor cells intensity within the perivitelline space).

Sequence of ACVR2A (P27037 20-513): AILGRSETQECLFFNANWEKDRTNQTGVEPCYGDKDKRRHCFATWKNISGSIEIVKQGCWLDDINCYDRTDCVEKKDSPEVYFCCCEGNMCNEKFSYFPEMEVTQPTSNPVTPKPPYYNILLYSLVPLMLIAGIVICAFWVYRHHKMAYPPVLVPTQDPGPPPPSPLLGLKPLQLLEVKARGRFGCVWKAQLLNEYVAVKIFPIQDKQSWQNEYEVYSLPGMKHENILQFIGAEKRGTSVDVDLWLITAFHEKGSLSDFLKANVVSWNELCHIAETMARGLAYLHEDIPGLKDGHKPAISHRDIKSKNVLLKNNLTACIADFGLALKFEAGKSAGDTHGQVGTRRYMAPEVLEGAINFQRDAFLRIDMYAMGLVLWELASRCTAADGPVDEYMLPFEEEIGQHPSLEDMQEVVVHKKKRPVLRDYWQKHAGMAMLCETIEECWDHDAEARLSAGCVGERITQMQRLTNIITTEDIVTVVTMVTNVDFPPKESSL

| Structure (SMILES) | Kd (ACVR2A) | effect on VEGF-induced EC cord formation (HUVECs [1]) | effect on HUVEC chemotactic invasion (HUVECs [2]) | effect on SIV vessel length [3] | effect on number of SIV tip cells (leading buds) [3] | effect on VEGF-induced pERK (VEGF-induced pERK) | effect on VEGF-induced cord length, different concentrations (HUVECs [1]; VEGF 20 ng/mL, 9 days) | effect on cancer cell-induced angiogenesis (relative vasculature density) [4] | effect on VEGF-induced cord formation at 0.1 μM (HUVECs [1]; VEGF 20 ng/mL, 9 days, 0.1 μM) | effect on VEGF-induced cord formation at 0.5 μM (HUVECs [1]; VEGF 20 ng/mL, 9 days, 0.5 μM) |
| --- | --- | --- | --- | --- | --- | --- | --- | --- | --- | --- |
| c1ccc2c(-c3cnn4cc(-c5ccc(N6CCNCC6)cc5)cnc34)ccnc2c1 [LDN-193189, reference compound] | 11 nM | no inhibitory effect and even slightly enhanced | significantly compromised | resulted in a lack of SIV vessels | significantly increased |  |  |  |  |  |
| CNC(=O)c1ccccc1Sc1ccc2c(/C=C/c3ccccn3)n[nH]c2c1 [Axitinib, reference compound] |  |  | significantly compromised | markedly inhibited |  | blocked | potently inhibited | markedly inhibited |  |  |
| CN1CCC(=O)NCCNc2ccn3ncc(c3n2)-c2cccc(c2)C1 [OD29] | 1240 nM | antagonized | similarly blocked | significantly inhibited | did not influence | profoundly decreased | antagonized in a dose-dependent manner | significantly inhibited | effectively attenuated |  |
| CN1CCc2cccc(c2)Nc2nccc(n2)N2CCCc3cc(ccc32)C1 [OD16] | 110 nM | antagonized | similarly blocked | significantly inhibited | did not influence | failed to alter | antagonized in a dose-dependent manner | significantly inhibited |  | apparent inhibitory effects |
